# Test results from US9090625B2, “Therapeutic pyrazolyl thienopyridines” (Thesan Pharmaceuticals, Inc., priority 2006, dated 2015).
# Test system: Smad binding element (SBE) luciferase reporter activity in TGFβ1 stimulated NIH-3T3 cells
# Experiment: ALK-5 gene reporter assay: Smad binding element (SBE) luciferase reporter in TGFβ1 stimulated NIH-3T3 cells
# Conditions: Mus musculus, NIH3T3
smiles,measurement,value
"CCc1cnn(-c2cccc(C)n2)c1-c1cc2cnccc2s1 [Example 4, 2-[4-ethyl-1-(6-methylpyridin-2-yl)-1H-pyrazol-5-yl]thieno[3,2-c]pyridine]",IC50,21.5 nM
